Laboratory results from patent publication EP3373009A1, “FLUORESCENT COMPOUNDS FOR THE DETECTION OF MALIGNANT MELANOMA” (Karlsruher Institut für Technologie, priority 2017, dated 2018).

Experiments:
[1] = tested on: human melanoma cells SK-Mel28; test: Cellular uptake of fluorescent compounds by CLSM with fluorescence quantification (Example 2, Fig. 3); type: cell-based; conditions: 20 µM in DMF, 5 hrs; for fluorescence signal: excitation 488 nm, background subtracted; for difference in the uptake between SK-Mel28 and HeLa cells: SK-Mel28 versus HeLa (negative control)
Protocol: The cellular uptake of the fluorescent compounds according to the present invention was studied by treatment of human melanoma cells SK-Mel28 and HeLa cells (human cervix carcinoma cell line as a negative control, common model cell line) and their investigation via CLSM (confocal laser scanning microscopy).
(§1) The aforementioned cells were seeded in an ibidi® µ-slide 8 well in a density of 2x10^5/mL and cultured for two days to confluency, before being treated with the fluorescent compounds in a concentration of 20 µM in DMF (dimethylformamide). After an incubation time of 5 hrs, the adherent cell layers were washed three times with PBS (phosphate buffered saline) and the nuclei were stained with Hoechst 33342 (Invitrogen, 0.5 µg/mL, 20 min). During the microscopic studies (Leica TCS-SP-5, inverted microscope), the fluorescent compounds were excited using an Ar-laser at 488 nm. Excitation of the Hoechst dye was accomplished with an UV-Laser at 351 and 364 nm. Due to the overlap of the emission spectra of both dyes, a sequential mode was chosen for recording the cell images.
The resulting cell images were analyzed in terms of fluorescence quantification at 488 nm excitation using the software imaged 1.50i (Wayne Rasband, National Institutes of Health, USA).
From each cell image, five cells were selected as regions of interest and the related fluorescence signals were quantified (mean value and standard deviation). Additionally, three cell-free regions were selected in each cell image as background and the resulting background signal from these regions was subtracted from the cell signal.

HeLa cells = test: Cellular uptake of the MSF in 2D cell culture, evaluated by CLSM (Example 1), non-affected control cells; type: cell-based, human; conditions: 20 µM in DMF, 5 hrs
Protocol: (§2) Two-dimensional cell cultures were treated with the fluorescent compound (I-1) as the MSF, represented by the following formula: [drawing 22]
(§3) Diverse cell lines as well as primary skin cells such as U2OS, SHSY, A459, H4, Hek293, HepG2, HCT116, U251, MCF-7, Ratfib, HUVEC, Fibroblasts, and HeLa were treated with the MSF at a concentration of 20 µM in DMF (dimethylformamide) for 5 hrs and subsequently evaluated by means of CLSM (confocal laser scanning microscopy).
(§4) In addition, murine (MEB4) as well as human (SK-Mel28) malignant melanoma cells were treated with the MSF under the same conditions.
(§5) The experimental procedure was similar to that of Example 2, as described below.
as §1, with “Due to the overlap of the emission spectra of both dyes, a sequential mode was chosen for recording the cell images.” left out

MEB4 cells = test: Cellular uptake of the MSF in 2D cell culture, evaluated by CLSM (Example 1); type: cell-based, murine; conditions: 20 µM in DMF, 5 hrs
Protocol: as §2, §3, §4, §5
as §1, with “Due to the overlap of the emission spectra of both dyes, a sequential mode was chosen for recording the cell images.” left out

Row | SMILES | fluorescence signal [1] | difference in the uptake between SK-Mel28 and HeLa cells [1] | fluorescence originating from the MSF in CLSM images (HeLa cells; HeLa cells, Fig. 1) | uptake by the cells (HeLa cells; HeLa non-affected cells) | fluorescence generated by the MSF in CLSM images (MEB4 cells; MEB4 cells, Fig. 2) | uptake by the cells (MEB4 cells; MEB4 malignant melanoma cells)
1 | O=C(c1ccccc1-c1c2ccc(=O)cc-2oc2cc(O)ccc12)N1CCN(C(=O)C2(F)C#CCCCCC2)CC1 (stereo not shown) [I-1] | high fluorescence signal | large difference in the uptake | no fluorescence apparent | not significantly been taken up | can be recognized throughout the cytoplasm | effectively been taken up
2 | O=C(c1ccc(OC2C#CCCCCC2)cc1)N1CCN(C(=O)c2ccccc2-c2c3ccc(=O)cc-3oc3cc(O)ccc23)CC1 (stereo not shown) [I-14] | slightly weaker fluorescence signals | significant differences in the uptake | – | – | – | –
3 | O=C(OCC1CSCC#CCO1)N1CCN(C(=O)c2ccccc2-c2c3ccc(=O)cc-3oc3cc(O)ccc23)CC1 (stereo not shown) [I-17] | slightly weaker fluorescence signals | significant differences in the uptake | – | – | – | –
4 | O=C(c1ccccc1-c1c2ccc(=O)cc-2oc2cc(O)ccc12)N1CCN(C(=O)C23CC4CC(CC(C4)C2)C3)CC1 [I-18] | slightly weaker fluorescence signals | significant differences in the uptake | – | – | – | –
5 | O=C(c1ccc2[nH]ccc2c1)N1CCN(C(=O)c2ccccc2-c2c3ccc(=O)cc-3oc3cc(O)ccc23)CC1 [I-20] | slightly weaker fluorescence signals | significant differences in the uptake | – | – | – | –
6 | O=C(NCCCCNC(=O)C1(F)C#CCCCCC1)c1ccc(-c2c3ccc(=O)cc-3oc3cc(O)ccc23)c(C(=O)O)c1 (stereo not shown) [I-25] | slightly weaker fluorescence signals | significant differences in the uptake | – | – | – | –
